Measurements as given in ChEMBL document CHEMBL3301361, “Experimental in vitro DMPK and physicochemical data on a set of publicly disclosed compounds”.

Test: physchem
Conditions: octan-1-ol/water, pH 7.4

Compound	logD
CC(C)[C@@H]1N=C(c2ccccc2)c2ccccc2NC1=O	3.05
CCCCCc1ccc(-c2nnc(N)s2)cc1	4.13
CNC(=O)c1cccc(O[C@H]2C[C@H]3CC[C@@H](C2)N3Cc2ccccc2)c1	1.93
O=C(N[C@H]1CN2CCC1CC2)c1ccc(Cl)cc1 [PNU-282987]	0.6
C[C@H]1NC(C)(C)CO[C@]1(O)c1cccc(Cl)c1	1.69
Cc1cc(=O)[nH]c2sc(C(=O)c3ccc(Br)cc3)c(N)c12	2.57
COc1ccc2c3c1OC1C(O)C=CC4C(C2)N(C)CCC341 (stereo not given)	0.8
Cn1nnc(-c2ccc(-c3ccc(N4C[C@H](COc5ccon5)OC4=O)cc3F)cn2)n1	1.24
CCCCCCN1CC[C@]2(C)c3cc(O)ccc3CC1[C@@H]2C	2.5
CC(C)[C@H](N)C(=O)OCCOCn1cnc2c(=O)[nH]c(N)nc21 [VALACYCLOVIR]	-1.3
O=C(Cc1cccc2ccccc12)Nc1ccccc1	3.9
O=C(N[C@H]1CN2CCC1CC2)c1ccc(-c2ccccn2)s1	0.7

Same assay, conditions: octan-1-ol/water, pH 7.4, LogD7.4

Compound	logD
CCS(=O)(=O)c1ccc(-c2cc(C(F)(F)F)ccc2O[C@H](C)C(=O)O)c(C)c1	-0.4
O=c1cc(-c2ccc(O)cc2)oc2ccc(O)cc12	3.3
CC(C)C(NC(=O)Cn1c(-c2ccccc2)ccc(NS(=O)(=O)NCc2ccccc2)c1=O)C(=O)C(F)(F)F (stereo not given)	2.57
Cn1cncc1-c1c2c(=O)n(C)c(=O)n(CC3CC3)c2nn1Cc1ccnc2ccc(Cl)cc12	2.69
CN[C@@H](C)C(=O)N[C@H](C(=O)N[C@H]1CCCN(CCc2ccc(C)cc2)C1)C(C)(C)C	2.05
C(=C\c1c(-c2ccccc2)nc2sccn12)/c1ccncn1	3.4
CNC(=O)c1cccc(S(=O)(=O)Nc2ncc(C)nc2OC)c1-c1ccc(CC(C)C)cc1	1.68
CCN1CCC[C@@H](CN2CCN(C(=O)Nc3ccc(Cl)c(Cl)c3)CC2)C1	1.94
CN(C)c1ccnc2sc(C(N)=O)c(N)c12	1.7
Clc1ccccc1-c1c[nH]nn1	2.68
CC(=O)Nc1ccc(S(=O)(=O)Nc2ccccn2)cc1	0.24
O=c1c2ccc(O)cc2ncn1-c1ccc(O)cc1	1.6
CC(C)Cn1c(=O)n(C)c(=O)c2c(C(=O)N3CC[C@@H](O)C3)c(Cc3cncc4ccccc34)sc21	1.74
CC1(C(=O)NC2CCCCC2)CCC(=O)N1Cc1cccs1 (stereo not given)	2.15
Cc1cccc(Br)c1C(=O)N[C@@H](Cc1ccc(NC(=O)c2c(Cl)cccc2Cl)cc1)C(=O)O	-0.13
CN1CCCCC1CCN1c2ccccc2Sc2ccc([S+](C)[O-])cc21 (stereo not given) [MESORIDAZINE]	1.6
NS(=O)(=O)c1ccc2c(c1)C1C=CCC1C(c1cccc3ccccc13)N2 (stereo not given)	1.9
Cc1cc(C)cc(CCOCCS(=O)(=O)NCCNCCc2ccc(O)c3nc(O)sc23)c1	2.45
Cc1nc(NC(=N)N)nc2ccccc12	-0.49
NC(=O)Cc1nc(-c2ccccc2)cs1	1.3
O=C(CC12CC3CC(CC(C3)C1)C2)Nc1cccc2ncccc12	3.83
CCN(C(=O)NCc1ccc(F)cc1)C1CCN(CCC(c2ccccc2)c2ccccc2)CC1	3.9
O=S(=O)(Cc1cc(Cl)cc(Cl)c1)NCC(c1ccccc1)N1CCCCCC1 (stereo not given)	3.23
NC(=O)Nc1cc(-c2cccc(F)c2F)sc1C(=O)N[C@H]1CCCNC1	1.32

Compound	logD
Cc1cc2n[nH]c(=O)n2c2cc(-c3ccc[nH]3)ccc12	3.29
CCN1CCOC(C(=O)N2CCN(C(=O)Nc3ccc(Cl)c(Cl)c3)CC2)C1 (stereo not given)	2.1
Cc1cccc(S(=O)(=O)NC(=O)N2CCC(N3CCC(Oc4ccc(Cl)c(Cl)c4)CC3)CC2)c1	1.84
CN1CCN(C(=O)c2cc3cc(F)ccc3[nH]2)CC1	1.97
c1ccc2nc(C3=NCCN3)ccc2c1	0.6
Cn1c(N)nc(CCc2ccc3ccccc3c2)cc1=O	2.7
Cc1cc2cc3c(C)cc(=O)oc3c(C)c2o1 [TRIOXSALEN]	3.47
CCN(CC)CCNC(=O)c1cc(Br)c(N)cc1OC [BROMOPRIDE]	0.54
N=C(N)Nc1ccc(Cl)c(Cl)c1	-0.31
Nc1c(C(=O)NC2CC2)nnc2c(-c3ncccn3)cccc12	1.5
CSc1ncccc1C(=O)NCCc1ccc(Cl)cc1	3.31
CCc1c(C)[nH]c2c1C(=O)C(CN1CCOCC1)CC2 (stereo not given) [MOLINDONE]	1.54
NC(=O)N1c2ccccc2C[C@H](O)c2ccccc21 [ESLICARBAZEPINE]	0.79
COc1c(N2CCO[C@@H](CN(C)C)C2)c(F)cc2c(=O)c(C(=O)O)cn(C3CC3)c12	-0.62
O=C(NC[C@@H](O)CN1CCC(Oc2ccc(Cl)c(Cl)c2)CC1)c1c[nH]c(=O)c2c(F)cccc12	3.15
CC(C)(N)C(=O)N[C@H](Cc1c[nH]c2ccccc12)C(=O)N[C@H](Cc1c[nH]c2ccccc12)NC=O [MACIMORELIN]	1
COCCC(=O)N[C@@H](C)c1ccc(Nc2ncc3cc(-c4ccncc4)ccc3n2)cc1	3.05
CN(C)CC(O)COc1ccc(Nc2cc(Nc3ccc(F)cc3F)ncn2)cc1 (stereo not given)	1.48
COc1cc(O)cc2occ(-c3ccc(O)cc3)c(=O)c12	2
COc1ccc(C(=O)Nc2cc(NC(=O)c3cccc(N(C)C)c3)ccc2Br)cc1OC	3.49
CC[C@H](NC(=O)c1c([S+]([O-])C(C)C)c(-c2ccccc2)nc2ccccc12)c1ccccc1 (stereo not given in full)	3.81
Clc1cccc(Cl)c1/C(=C/n1cncn1)OC1CCCCCC1	4.1
CC(C)C(NC(=O)Cn1c(-c2ccccc2)ccc(NC(=O)NCc2ccc[n+]([O-])c2)c1=O)C(=O)C(F)(F)F (stereo not given)	1.48
CCCCC(NC(=O)CC1CCN(Cc2ccn(-c3ccc(C(F)(F)F)cc3)c2)CC1)c1ccc(=O)[nH]c1 (stereo not given)	2.89

Compound	logD
Cc1ccc(/C=C(\C#N)C(N)=O)cc1	2.09
Oc1ccc(-c2nc3ccccc3nc2-c2ccc(O)cc2)cc1	2.7
c1ccc(C2Cc3ccccc3CN2)cc1 (stereo not given)	1.9
CCCSc1ncccc1C(=O)N(C)[C@H]1[C@@H]2CC3C[C@H]1C[C@@](O)(C3)C2	2.48
O=C(Nc1nc2ccccc2n1CCN1CCOCC1)c1cccc([N+](=O)[O-])c1	3.3
C=CCNC(=O)c1cc([N+](=O)[O-])cc2c(=O)[nH]c(Nc3ccc(Cl)c(Cl)c3)nc12	2.7
O=C1c2ccc(O)cc2C(=O)N1c1ccc(O)cc1F	2.1
CCC(c1nc2ncccc2c(=O)n1Cc1ccccc1)N(CCCN)C(=O)c1ccc(C)cc1 (stereo not given)	-0.04
O=C(c1cccc(Cc2n[nH]c(=O)c3ccccc23)c1)N1CCN(c2ccccn2)CC1	2.36
O=C(NC1Cc2ccccc2N(CC(CO)CO)C1=O)c1cc2cc(Cl)ccc2[nH]1 (stereo not given)	3.64
Cc1cn(C2CCCN(Cc3cccc(Oc4ccccc4)c3)C2)c(=O)[nH]c1=O (stereo not given)	3.04
O=S(=O)(Nc1ccc2[nH]c(-c3ccc(Br)o3)nc2c1)c1ccccc1	4.38
O=C(N[C@H]1Cc2ccccc2N(C[C@H](O)CO)C1=O)c1cc2cc(Cl)sc2[nH]1	3.27
CC(=O)Nc1cccc(S(=O)(=O)Nc2ccc(-c3ccccc3)n(CC(=O)NC(C(=O)C(F)(F)F)C(C)C)c2=O)c1 (stereo not given)	2.43
CNC(=O)c1cccc(NC(=O)Nc2cccc(C#N)c2)c1CN1CCC(Cc2ccc(F)cc2)CC1	3.97
O=C(O)c1cccnc1Nc1cccc(C(F)(F)F)c1 [NIFLUMIC ACID]	1
CCCc1cc(OCc2ccccc2)cc(=O)n1Cc1ccc(-c2ccccc2-c2nn[nH]n2)cc1	2.4
CC(=O)Nc1cc2c(ccn2-c2cc(NC3CC3)n3ncc(C#N)c3n2)cc1C	2.66
CCN1CCOc2cc(COc3ccccc3)cnc21	3.7
O=C(Nc1ccc(N2CCOCC2)cn1)c1nnc(Nc2ccccc2F)o1	2.4
O=C(NS(=O)(=O)c1cccc(C(F)(F)F)c1)N1CCC(N2CCC(Oc3ccc(Cl)c(Cl)c3)CC2)CC1	2.94
c1ccc(-c2ccc(COc3ccc4c(c3)CCC(CCN3CCCCC3)C4)cc2)cc1 (stereo not given)	3.3
O=C1CCOc2nc(C#CC3CCCC3)ccc21	3
Cc1cc(CN2Cc3cccnc3CC2C(=O)Nc2ccc(Cl)cc2Cl)ccc1OCC(=O)O (stereo not given)	1.15

Compound	logD
Cc1oc(S(C)(=O)=O)cc1-c1c2c(=O)n(C)c(=O)n(CC3CC3)c2nn1Cc1ccnc2ccc(Cl)cc12	3.2
Cn1c(=O)c2c(-c3ccc(S(C)(=O)=O)o3)n(Cc3ccnc4ccc(Cl)cc34)nc2n(CC2CC2)c1=O	2.71
O=C1CCOc2nc(C#CC3CCCCC3)ccc21	3.3
COCCNCc1ccc(CCNC[C@H](O)c2ccc(O)c3[nH]c(=O)sc23)cc1	-0.54
CNC(=O)c1ccc(Nc2ncc(F)c(-c3cnc(C)n3C(C)C)n2)cc1	3
O=C(N[C@@H](c1ccccc1)[C@@H]1CCCCN1)c1cccc(C(F)(F)F)c1Cl	2.61
CCOC(=O)c1ccc(COC2CN(c3ccc(C)nn3)C2)cc1	2.5
CCCSc1nc(N2CCCC(C(=O)O)C2)ccc1C(=O)NC1CCCCC1 (stereo not given)	1.72
Cc1ccc(C(=O)c2cc(O)c(O)c([N+](=O)[O-])c2)cc1 [TOLCAPONE]	0.74
C[C@@H]1CN(c2nc(N3CCOC[C@@H]3C)c3ccc(-c4ccccc4)nc3n2)C[C@H](C)O1	3.75
CCC(c1nc2ccsc2c(=O)n1Cc1ccccc1)N(CC1CCNCC1)C(=O)c1ccc(C)cc1 (stereo not given)	1.33
O=C(OCC(O)CO)c1ccccc1Nc1ccnc2cc(Cl)ccc12 (stereo not given) [GLAFENINE]	3.5
CC(C)C(NC(=O)Cn1c(-c2ccccc2)cc2c(O)nc(O)nc2c1=O)C(=O)C(F)(F)F (stereo not given)	1.88
Fc1ccc2cn[nH]c2c1	2.3
N#Cc1cc(S(=O)(=O)NCC(c2ccccc2)N2CCCCCC2)ccc1F (stereo not given)	2.71
O=c1[nH]n(C(c2ccccn2)C2CCCC2)c(=O)c2c(O)c3ccc(Cl)cc3nc12 (stereo not given)	1.9
O=C(c1ccc(OCCCc2cnc[nH]2)cc1)C1CC1 [CIPROXIFAN]	2.68
Cc1ccc(COC(=O)N2CC[C@H](CNc3ncccn3)[C@H](F)C2)cc1 [RISLENEMDAZ]	3.21
CN(Cc1ccc(Cl)cc1)C(=O)C1(N)CCN(c2ncnc3[nH]ccc23)CC1	2.8
NS(=O)(=O)c1cc(C(=O)O)cc(N2CCCC2)c1Oc1ccccc1 [PIRETANIDE]	-0.94
CCC(c1nc2ccsc2c(=O)n1Cc1ccccc1)N(CCCN)C(=O)c1ccc(OC)cc1 (stereo not given)	1.39
